Columns and labels:
hIBAT = biological target: T1, hIBAT (Homo sapiens, UniProt Q12908); test: IBAT (h/m) assay, 3H-taurocholic acid uptake in human IBAT-overexpressing cells; format: cell-based; settings: 0.25 μM 3H-taurocholic acid and 5 μM cold taurocholic acid, 20 minutes
T1 construct: expressed in transfected cells; kept under Puromycin selection
T1 sequence (Q12908 1-348): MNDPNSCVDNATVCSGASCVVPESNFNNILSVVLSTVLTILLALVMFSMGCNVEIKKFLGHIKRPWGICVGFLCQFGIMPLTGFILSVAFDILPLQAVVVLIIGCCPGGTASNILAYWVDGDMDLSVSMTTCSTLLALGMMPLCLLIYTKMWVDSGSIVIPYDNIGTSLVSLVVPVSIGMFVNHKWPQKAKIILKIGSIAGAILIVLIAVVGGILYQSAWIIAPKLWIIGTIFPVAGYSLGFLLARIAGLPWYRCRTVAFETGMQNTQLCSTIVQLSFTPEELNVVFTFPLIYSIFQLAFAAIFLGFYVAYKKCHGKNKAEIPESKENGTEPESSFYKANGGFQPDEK
Procedure: 10,000 cells (Human or Mouse IBAT-overexpressing cells) were seeded in 96-wells plate (Corning CLS3809) in 200 μL MEM-alpha medium (Gibco 12571-063) supplemented with 10% FBS (Gibco 10438026) containing Puromycin (Gibco A1113803) (10 μg/mL) and incubated at 37° C. in 5% CO2 for 48 hours. After incubation, media was decanted from the wells and cells were washed two times with 300 μL of basal MEM-alpha medium (FBS-free). After decanting basal MEM-alpha medium each time, plates were tapped against paper towel to ensure maximum removal of residual media. Test inhibitor dilutions (highest test concentration being 10 μM, 3-fold serial dilution, 10 points) prepared in DMSO (Sigma D2650) were added in incubation mix (maintaining 0.2% final DMSO concentration) containing 0.25 μM 3H-taurocholic acid (ARC ART-1368) and 5 μM of cold taurocholic acid (Sigma T4009). 50 μL of incubation mix containing test inhibitors was then added to the wells (in duplicate) and the plates were incubated for 20 minutes in a CO2 incubator at 37° C. After incubation, the reaction was stopped by keeping the plates on ice water mix for 2-3 minutes and then the incubation mix was aspirated completely from the wells. The wells were washed two times with 250 μL of chilled unlabelled 1 mM taurocholic acid dissolved in HEPES (Gibco 15630080)-buffered (10 mM) HBSS (Gibco 14175079) (pH 7.4). The plates were tapped against a paper towel after every wash to ensure maximum removal of blocking buffer.
(§1) 100 μL of MicroScint-20 (PerkinElmer 6013621) was added to the wells and kept overnight at room temperature before reading the plates in TopCount NXT™ Microplate Scintillation and Luminescence Counter from PerkinElmer under 3H Test protocol (set at 120 seconds reading time per well).
(§2) All test compounds were provided in powder form at room temperature. 10 mM DMSO stocks of the test compounds were prepared, aliquoted and stored at −20° C. From the 10 mM DMSO stock of the compounds, a 3-fold serial dilution in DMSO was prepared to get a total of 10 dilutions of the test compounds. 0.5 μL of this dilution in DMSO was added to 250 μL of FBS-free basal media containing 3H-taurocholic acid and cold taurocholic acid to prepare the incubation mixture.

hLBAT = biological target: T2, hLBAT (Homo sapiens, UniProt Q14973); test: LBAT (h/m) assay, 3H-taurocholic acid uptake in human LBAT-overexpressing cells; format: cell-based; settings: 0.3 μM 3H-taurocholic acid and 7.5 μM cold taurocholic acid, 20 minutes
T2 construct: expressed in transfected cells; kept under Geneticin selection
T2 sequence (Q14973 1-349): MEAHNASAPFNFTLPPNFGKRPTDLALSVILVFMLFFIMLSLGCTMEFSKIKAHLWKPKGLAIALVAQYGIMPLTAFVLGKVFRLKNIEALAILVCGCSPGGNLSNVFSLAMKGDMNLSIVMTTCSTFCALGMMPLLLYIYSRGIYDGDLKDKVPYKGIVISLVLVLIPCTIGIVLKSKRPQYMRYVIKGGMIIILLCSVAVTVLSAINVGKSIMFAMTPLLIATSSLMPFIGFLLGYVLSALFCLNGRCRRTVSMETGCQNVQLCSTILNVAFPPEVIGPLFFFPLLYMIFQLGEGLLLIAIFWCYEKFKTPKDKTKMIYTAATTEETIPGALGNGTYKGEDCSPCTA
Procedure: 20,000 cells (Human or Mouse LBAT-overexpressing cells) were seeded in 96-wells plate (Corning CLS3809) in 100 μL MEM-alpha medium (Gibco 12571-063) supplemented with 10% FBS (Gibco 10438026) containing Geneticin (Gibco 10131-027) (1 mg/mL) and incubated at 37° C. in 5% CO2 for 24 hours. After incubation, media was decanted from the wells and cells were washed two times with 300 μL of basal MEM-alpha medium (FBS-free). After decanting basal MEM-alpha medium each time, plates were tapped against paper towel to ensure maximum removal of residual media. For human LBAT, incubation mix was prepared by adding test inhibitor dilutions (3-fold serial dilution in DMSO (Sigma D2650), 10 points) in MEM-alpha (without FBS) containing 0.3 μM 3H-taurocholic acid (ARC ART-1368) and 7.5 μM cold taurocholic acid (Sigma T4009) (maintaining 0.2% final DMSO concentration). For mouse LBAT, incubation mix was prepared by adding test inhibitor dilutions (3-fold serial dilution in DMSO, 10 points) in MEM-alpha (without FBS) containing 0.3 μM 3H-taurocholic acid and 25 μM cold taurocholic acid maintaining 0.2% final DMSO concentration). 50 μL of incubation mix containing test inhibitors was then added to the wells (in duplicate) and the plates were incubated for 20 minutes in a CO2 incubator at 37° C. After incubation, the reaction was stopped by keeping the plates on ice water mix for 2-3 minutes and then the incubation mix was aspirated completely from the wells. The wells were washed two times with 250 μL of chilled unlabelled 1 mM taurocholic acid dissolved in HEPES (Gibco 15630080)-buffered (10 mM) HBSS (Gibco 14175079) (pH 7.4). The plates were tapped against a paper towel after every wash to ensure maximum removal of blocking buffer.
as §1, with “well, with normal plate orientation).” for “well).”
as §2

[1] = Bidirectional permeability assay (Caco-2 cells); settings: human, Caco-2
Procedure: Caco-2 cells (Evotec) were seeded at a density of 70,000 cells/well in Millicell® 24-well cell culture insert plates and maintained in an incubator (37° C., 5% CO2, 95% RH) for 21 days with media change on alternate days.
Stock solutions (10 mM) of the test compounds, atenolol (low permeability marker), propranolol (high permeability marker) and digoxin (substrate for P-gp transport pathway) were prepared in dimethylsulfoxide (DMSO). An intermediate stock solution (1 mM) was prepared by diluting 10 μL of 10 mM master stock solution with 90 μL of neat DMSO. A working stock solution (10 μM) was prepared by diluting 50 μL of 1 mM with 4950 μL of FaSSIF buffer. Post addition of compounds to the FaSSIF, samples were subjected to sonication for 2 hours, and centrifuged at 4000 RPM for 30 minutes at 37° C. The 4 mL of resultant supernatant was directly used in the assay. The final DMSO concentration in the transport experiments was 1%.
On the day of assay, Caco-2 monolayers were washed twice with transport buffer (HBSS, pH 7.4) and pre-incubated for 30 min (37° C., 5% CO2, 95% RH) in an incubator. The electrical resistance of the monolayers was measured with a Millicell®—ERS system. Monolayers with trans-epithelial electrical resistance (TEER) values greater than 350 ohm·cm^2 were selected for the assay.
The assay was conducted in absorptive direction (A2B) and secretory (B2A) directions. Transport experiments were initiated by addition of transport assay buffer (FaSSIF buffer prepared in HBSS) consisting of compounds to the donor compartment (apical chamber A-B; basolateral chamber B-A) in duplicate (n=2) wells. Drug free HBSS buffer (pH 7.4) containing 1% bovine serum albumin (BSA) was introduced to the receiver (A-B-basolateral; B-A-Apical) compartments. The volumes of apical and basolateral compartments were 0.4 and 0.8 mL, respectively. After adding dosing solution, plates were incubated in an incubator for 120 minutes at 37° C. After 120 minutes, donor and receiver samples were collected and matrix matched (1:1, 30 μL study sample+30 μL blank buffer) with the opposite buffer. Dosing samples matrix matched (1:1, 30 μL study sample+30 μL blank buffer) with the opposite buffer. Samples were processed by adding acetonitrile containing internal standard (60 μL study sample+200 μL acetonitrile containing internal standard—Tolbutamide, 500 ng/mL). Samples were vortexed and centrifuged at 4000 rpm for 10 minutes. The obtained supernatant (100 μL) was diluted with 100 μL of water and transferred to fresh 96 well plates. The concentration of compounds in the samples was analyzed by liquid chromatography tandem mass spectrometry (LC-MS/MS) method using discovery grade bio-analytical method, as applicable.
The mean apparent permeability (Papp, ×10^−6 cm/sec) of the test compounds, atenolol, propranolol and digoxin were calculated as follows:

Row | Compound | IC50 (hIBAT) | IC50 (hLBAT) | Papp A→B at 120 min, 10 µM [1] | Papp B→A at 120 min, 10 µM [1]
1 | CCCC[C@@]1(CC)CN(c2ccccc2)c2cc(N(C)C)c(O/C=C/C(=O)O)cc2S(=O)(=O)N1.CCCC[C@]1(CC)CN(c2ccccc2)c2cc(N(C)C)c(O/C=C/C(=O)O)cc2S(=O)(=O)N1 (mixture of isomers) [Example 15, (S)-(E)-3-((3-butyl-7-(dimethylamino)-3-ethyl-1,1-dioxido-5-phenyl-2,3,4,5-tetrahydro-1,2,5-benzothiadiazepin-8-yl)oxy)acrylic acid and (R)-(E)-3-((3-butyl-7-(dimethylamino)-3-ethyl-1,1-dioxido-5-phenyl-2,3,4,5-tetrahydro-1,2,5-benzothiadiazepin-8-yl)oxy)acrylic acid] | 66 nM |  |  | 
2 | CCC[C@@]1(CC)CN(c2ccccc2)c2cc(SC)c(O/C=C(\F)C(=O)O)cc2S(=O)(=O)C1.CCC[C@]1(CC)CN(c2ccccc2)c2cc(SC)c(O/C=C(\F)C(=O)O)cc2S(=O)(=O)C1 (mixture of isomers) [Example 18, (S)—(Z)-3-((3-ethyl-7-(methylthio)-1,1-dioxido-5-phenyl-3-propyl-2,3,4,5-tetrahydro-1,5-benzothiazepin-8-yl)oxy)-2-fluoroacrylic acid and (R)—(Z)-3-((3-ethyl-7-(methylthio)-1,1-dioxido-5-phenyl-3-propyl-2,3,4,5-tetrahydro-1,5-benzothiazepin-8-yl)oxy)-2-fluoroacrylic acid] | 337 nM | 38 nM |  | 
3 | CCC[C@@]1(CC)CN(c2ccccc2)c2cc(SC)c(O/C=C(\F)C(=O)O)cc2S(=O)(=O)C1.CCC[C@]1(CC)CN(c2ccccc2)c2cc(SC)c(O/C=C(\F)C(=O)O)cc2S(=O)(=O)C1 (mixture of isomers) [Example 19, (S)—(Z)-3-((3-ethyl-7-(methylthio)-1,1-dioxido-5-phenyl-3-propyl-2,3,4,5-tetrahydro-1,5-benzothiazepin-8-yl)oxy)-2-fluoroacrylic acid and (R)—(Z)-3-((3-ethyl-7-(methylthio)-1,1-dioxido-5-phenyl-3-propyl-2,3,4,5-tetrahydro-1,5-benzothiazepin-8-yl)oxy)-2-fluoroacrylic acid] | 283 nM | 5 nM |  | 
4 | CCCCC1(CCCC)CN(c2ccc(F)cc2)c2cc(SC)c(O/C=C(\F)C(=O)O)cc2S(=O)(=O)C1 [Example 1, (Z)-3-((3,3-dibutyl-5-(4-fluorophenyl)-7-(methylthio)-1,1-dioxido-2,3,4,5-tetrahydro-1,5-benzothiazepin-8-yl)oxy)-2-fluoroacrylic acid] | 21 nM | 49 nM | 0.9 ×10⁻⁶ cm/s | 0.9 ×10⁻⁶ cm/s
5 | (S)-(E)-3-((3-butyl-3-ethyl-5-(4-fluorophenyl)-7-(methylthio)-1,1-dioxido-2,3,4,5-tetrahydro-1,5-benzothiazepin-8-yl)oxy)acrylic acid and (R)-(E)-3-((3-butyl-3-ethyl-5-(4-fluorophenyl)-7-(methylthio)-1,1-dioxido-2,3,4,5 tetrahydro-1,5-benzothiazepin-8-yl)oxy)acrylic acid [Example 9] | 151 nM | 150 nM |  | 

Now from value to compound:

Row | IC50 (hIBAT) | IC50 (hLBAT) | Papp A→B at 120 min, 10 µM [1] | Papp B→A at 120 min, 10 µM [1] | Compound
6 | 13 nM | 124 nM | 1.4 ×10⁻⁶ cm/s | 2.4 ×10⁻⁶ cm/s | CCCCC1(CC)CN(c2ccccc2)c2cc(N(C)C)c(O/C=C(\F)C(=O)O)cc2S(=O)(=O)N1 (stereo not drawn) [Example 2, (Z)-3-((3-butyl-7-(dimethylamino)-3-ethyl-1,1-dioxido-5-phenyl-2,3,4,5-tetrahydro-1,2,5-benzothiadiazepin-8-yl)oxy)-2-fluoroacrylic acid]
7 | 7 nM | 118 nM |  |  | CCCCC1(CC)CN(c2ccc(F)cc2)c2cc(SC)c(O/C=C/C(=O)O)cc2S(=O)(=O)C1 (stereo not drawn) [Example 8, (E)-3-((3-butyl-3-ethyl-5-(4-fluorophenyl)-7-(methylthio)-1,1-dioxido-2,3,4,5-tetrahydro-1,5-benzothiazepin-8-yl)oxy)acrylic acid]
8 | 260 nM | 97 nM |  |  | CCCC1(CC)CN(c2ccccc2)c2cc(SC)c(O/C=C/C(=O)O)cc2S(=O)(=O)C1 (stereo not drawn) [Example 11, (E)-3-((3-ethyl-7-(methylthio)-1,1-dioxido-5-phenyl-3-propyl-2,3,4,5-tetrahydro-1,5-benzothiazepin-8-yl)oxy)acrylic acid]
9 | 565 nM | 218 nM |  |  | CCC1(C(C)C)CN(c2ccccc2)c2cc(SC)c(O/C=C/C(=O)O)cc2S(=O)(=O)C1 (stereo not drawn) [Example 16, (E)-3-((3-ethyl-3-isopropyl-7-(methylthio)-1,1-dioxido-5-phenyl-2,3,4,5-tetrahydro-1,5-benzothiazepin-8-yl)oxy)acrylic acid]
10 | 378 nM | 17 nM |  |  | CCC1(C(C)C)CN(c2ccccc2)c2cc(SC)c(O/C=C(\F)C(=O)O)cc2S(=O)(=O)C1 (stereo not drawn) [Example 17, (Z)-3-((3-ethyl-3-isopropyl-7-(methylthio)-1,1-dioxido-5-phenyl-2,3,4,5-tetrahydro-1,5-benzothiazepin-8-yl)oxy)-2-fluoroacrylic acid]
11 | 66 nM | 12 nM |  |  | (S)—(Z)-3-((3-butyl-3-ethyl-5-(4-fluorophenyl)-7-(methylthio)-1,1-dioxido-2,3,4,5-tetrahydro-1,5-benzothiazepin-8-yl)oxy)-2-fluoroacrylic acid and (R)—(Z)-3-((3-butyl-3-ethyl-5-(4-fluorophenyl)-7-(methylthio)-1,1-dioxido-2,3,4,5-tetrahydro-1,5-benzothiazepin-8-yl)oxy)-2-fluoroacrylic acid [Example 6]
12 | 91 nM | 77 nM |  |  | (S)—(Z)-3-((3-butyl-7-(dimethylamino)-3-ethyl-1,1-dioxido-5-phenyl-2,3,4,5-tetrahydro-1,2,5-benzothiadiazepin-8-yl)oxy)-2-fluoroacrylic acid and (R)—(Z)-3-((3-butyl-7-(dimethylamino)-3-ethyl-1,1-dioxido-5-phenyl-2,3,4,5-tetrahydro-1,2,5-benzothiadiazepin-8-yl)oxy)-2-fluoroacrylic acid [Example 4]

— patent publication US11267794B2, “Benzothia(di)azepine compounds and their use as bile acid modulators” (Albireo AB, priority 2019, dated 2022)
